Measurements taken from patent publication US8575201B2 (Boehringer Ingelheim International GmbH, priority 2010, dated 2013).

Columns and labels:
[1] = system: synthesis of LTB4 in human whole blood; assay: Human whole blood LTB4 production inhibition assay; assay type: cell-based; settings: calcimycin stimulated, read-out: hWB LTB4 IC50
Procedure, shortened: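 LTB4 in plasma was quantified by HTRF immunoassay. Before that, compound-treated heparinized whole blood (15 min, 37 °C) received 20 μM final calcimycin for a further 30 min at 37 °C, followed by centrifugation at 1500×g.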

[2] = molecular target: recombinant human FLAP protein (Homo sapiens (Human), UniProt P20292); assay: FLAP binding assay (Scintillation Proximity Assay, displacement of [125I]L-691,831); settings: read-out: FLAP SPA IC50
Procedure, shortened: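 Scintillation proximity displacement of an iodinated (125I) FLAP inhibitor by test compounds, using 100,000×g membrane fraction from lysed cells. Final beads 200 μg/well and protein 5 μg/well; plates shaken 2 h before reading.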

Sequence of recombinant human FLAP protein (P20292 whole entry): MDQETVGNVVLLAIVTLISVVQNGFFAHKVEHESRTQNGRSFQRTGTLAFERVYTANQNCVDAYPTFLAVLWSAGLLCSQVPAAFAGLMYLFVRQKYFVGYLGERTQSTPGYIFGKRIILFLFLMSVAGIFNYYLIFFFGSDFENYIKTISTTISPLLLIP

SMILES | IC50 [1] [nM] | IC50 [2] [nM]
Cn1cnc(-c2nc(C3(c4ccc(-c5cnc(N)nc5)nc4)CCC3)no2)c1 [Example 131, 5-(5-{1-[5-(1-methyl-1H-imidazol-4-yl)-1,2,4-oxadiazol-3-yl]cyclobutyl}pyridin-2-yl)pyrimidin-2-amine] | 300 | 52
Nc1ncc(-c2ccc(C3(c4noc(-c5cn[nH]c5)n4)CCC3)nc2)cn1 [Example 132, 5-(6-{1-[5-(1H-pyrazol-4-yl)-1,2,4-oxadiazol-3-yl]cyclobutyl}pyridin-3-yl)pyrimidin-2-amine] | 370 | 46
Cc1cc(-c2nc(C3(c4ccc(-c5cnc(N)nc5)cn4)CCC3)no2)[nH]n1 [Example 133, 5-(6-{1-[5-(3-methyl-1H-pyrazol-5-yl)-1,2,4-oxadiazol-3-yl]cyclobutyl}pyridin-3-yl)pyrimidin-2-amine] | 340 | 43
Cn1cc(-c2nc(C3(c4ccc(-c5cnc(N)nc5)cn4)CCC3)no2)cn1 [Example 134, 5-(6-{1-[5-(1-methyl-1H-pyrazol-4-yl)-1,2,4-oxadiazol-3-yl]cyclobutyl}pyridin-3-yl)pyrimidin-2-amine] | 790 | 81
Cc1cc(-c2nc(C3(c4ccc(-c5cnc(N)nc5)cn4)CCOCC3)no2)n(C)n1 [Example 136, 5-(6-{4-[5-(1,3-dimethyl-1H-pyrazol-5-yl)-1,2,4-oxadiazol-3-yl]tetrahydro-2H-pyran-4-yl}pyridin-3-yl)pyrimidin-2-amine] | > 5000 | 540
Nc1ncc(-c2ccc(C3(c4noc(-c5cccnc5)n4)CCOCC3)nc2)cn1 [Example 137, 5-(6-{4-[5-(pyridin-3-yl)-1,2,4-oxadiazol-3-yl]tetrahydro-2H-pyran-4-yl}pyridin-3-yl)pyrimidin-2-amine] | 3000 | 580
Nc1ncc(-c2ccc(C3(c4noc(-c5ccncc5)n4)CCOCC3)nc2)cn1 [Example 138, 5-(6-{4-[5-(pyridin-4-yl)-1,2,4-oxadiazol-3-yl]tetrahydro-2H-pyran-4-yl}pyridin-3-yl)pyrimidin-2-amine] | > 5000 | 970
Nc1ncc(-c2ccc(C3(c4noc(-c5cnn(C6CCS(=O)(=O)C6)c5)n4)CCC3)cn2)cn1 (stereo not shown) [Example 139, 5-[5-(1-{5-[1-(1,1-dioxidotetrahydrothiophen-3-yl)-1H-pyrazol-4-yl]-1,2,4-oxadiazol-3-yl}cyclobutyl)pyridin-2-yl]pyrimidin-2-amine] | 340 | 28
Nc1ncc(-c2ccc(C3(c4noc(-c5cnn(CCN6CCOCC6)c5)n4)CCC3)cn2)cn1 [Example 140, 5-{5-[1-(5-{1-[2-(morpholin-4-yl)ethyl]-1H-pyrazol-4-yl}-1,2,4-oxadiazol-3-yl)cyclobutyl]pyridin-2-yl}pyrimidin-2-amine] | 110 | 15
N#CCn1cc(-c2nc(C3(c4ccc(-c5cnc(N)nc5)nc4)CCC3)no2)cn1 [Example 141, [4-(3-{1-[6-(2-aminopyrimidin-5-yl)pyridin-3-yl]cyclobutyl}-1,2,4-oxadiazol-5-yl)-1H-pyrazol-1-yl]acetonitrile] | 85 | 11
CN(C)CCn1cc(-c2nc(C3(c4ccc(-c5cnc(N)nc5)nc4)CCC3)no2)cn1 [Example 142, 5-{5-[1-(5-{1-[2-(dimethylamino)ethyl]-1H-pyrazol-4-yl}-1,2,4-oxadiazol-3-yl)cyclobutyl]pyridin-2-yl}pyrimidin-2-amine] | 250 | 16
CN(C(=O)Cn1cc(-c2nc(C3(c4ccc(-c5cnc(N)nc5)nc4)CCC3)no2)cn1)C(C)(C)C [Example 143, 2-[4-(3-{1-[6-(2-aminopyrimidin-5-yl)pyridin-3-yl]cyclobutyl}-1,2,4-oxadiazol-5-yl)-1H-pyrazol-1-yl]-N-tert-butyl-N-methylacetamide] | 260 | 14
Nc1cnc(-c2ccc(C3(c4noc(-c5cnn(C6COC6)c5)n4)CCC3)cn2)cn1 [Example 145] | 29 | 8.3
CC(C)(O)Cn1cc(-c2nc(C3(c4ccc(-c5cnc(N)cn5)nc4)CCC3)no2)cn1 [Example 146, 1-[4-(3-{1-[6-(5-amino-pyrazin-2-yl)-pyridin-3-yl]-cyclobutyl}-[1,2,4]oxadiazol-5-yl)-pyrazol-1-yl]-2-methyl-propan-2-ol] | 43 | 15
CC(C)(Cn1cc(-c2nc(C3(c4ccc(-c5cnc(N)nc5)nc4)CCC3)no2)cn1)C(N)=O [Example 147, 3-[4-(3-{1-[6-(2-amino-pyrimidin-5-yl)-pyridin-3-yl]-cyclobutyl}-[1,2,4]oxadiazol-5-yl)-pyrazol-1-yl]-2,2-dimethyl-propionamide] | 340 | 65
CC(C)(C#N)Cn1cc(-c2nc(C3(c4ccc(-c5cnc(N)nc5)nc4)CCC3)no2)cn1 [Example 148, 3-[4-(3-{1-[6-(2-amino-pyrimidin-5-yl)-pyridin-3-yl]-cyclobutyl}-[1,2,4]oxadiazol-5-yl)-pyrazol-1-yl]-2,2-dimethyl-propionitrile] | 200 | 25
CC(C)(C(N)=O)n1cc(-c2nc(C3(c4ccc(-c5cnc(N)nc5)nc4)CCC3)no2)cn1 [Example 149, 2-[4-(3-{1-[6-(2-amino-pyrimidin-5-yl)-pyridin-3-yl]-cyclobutyl}-[1,2,4]oxadiazol-5-yl)-pyrazol-1-yl]-isobutyramide] | 430 | 160
CC(C)(N)Cn1cc(-c2nc(C3(c4ccc(-c5cnc(N)nc5)nc4)CCC3)no2)cn1 [Example 150, 5-[5-(1-{5-[1-(2-amino-2-methyl-propyl)-1H-pyrazol-4-yl]-[1,2,4]oxadiazol-3-yl}-cyclobutyl)-pyridin-2-yl]-pyrimidin-2-ylamine] | 370 | 68
CC(C)(C#N)n1cc(-c2nc(C3(c4ccc(-c5cnc(N)nc5)nc4)CCC3)no2)cn1 [Example 151, 2-[4-(3-{1-[6-(2-amino-pyrimidin-5-yl)-pyridin-3-yl]-cyclobutyl}-[1,2,4]oxadiazol-5-yl)-pyrazol-1-yl]-2-methyl-propionitrile] | 94 | 18
Nc1ccc(-c2ccc(C3(c4noc(-c5cnn(C6COC6)c5)n4)CCC3)cn2)cn1 [Example 152, 5-{1-[5-(1-oxetan-3-yl-1H-pyrazol-4-yl)-[1,2,4]oxadiazol-3-yl]-cyclobutyl}-[2,3′]bipyridinyl-6′-ylamine] | 100 | 13
CC(C)(O)Cn1cc(-c2nc(C3(c4ccc(-c5ccc(N)nc5)nc4)CCC3)no2)cn1 [Example 153, 1-(4-{3-[1-(6′-amino-[2,3′]bipyridinyl-5-yl)-cyclobutyl]-[1,2,4]oxadiazol-5-yl}-pyrazol-1-yl)-2-methyl-propan-2-ol] | 190 | 34
Nc1ncc(-c2ccc(C3(c4noc(N5CCC(O)CC5)n4)CCC3)cn2)cn1 [Example 154, 1-(3-{1-[6-(2-Amino-pyrimidin-5-yl)-pyridin-3-yl]-cyclobutyl}-[1,2,4]oxadiazol-5-yl)-piperidin-4-ol] | 590 | 170
Nc1ncc(-c2ccc(C3(c4noc(-c5cnn(CC(=O)NC6CC6)c5)n4)CCC3)cn2)cn1 [Example 155, 2-[4-(3-{1-[6-(2-Amino-pyrimidin-5-yl)-pyridin-3-yl]-cyclobutyl}-[1,2,4]oxadiazol-5-yl)-pyrazol-1-yl]-N-cyclopropyl-acetamide] | 550 | 63
Nc1ncc(-c2ccc(C3(c4noc(-c5cnn(CC(=O)NCC6CCCO6)c5)n4)CCC3)cn2)cn1 (stereo not shown) [Example 156, 2-[4-(3-{1-[6-(2-amino-pyrimidin-5-yl)-pyridin-3-yl]-cyclobutyl}-[1,2,4]oxadiazol-5-yl)-pyrazol-1-yl]-N-(tetrahydro-furan-2-ylmethyl)-acetamide] | 620 | 97
CC(C)NC(=O)Cn1cc(-c2nc(C3(c4ccc(-c5cnc(N)nc5)nc4)CCC3)no2)cn1 [Example 157, 2-[4-(3-{1-[6-(2-amino-pyrimidin-5-yl)-pyridin-3-yl]-cyclobutyl}-[1,2,4]oxadiazol-5-yl)-pyrazol-1-yl]-N-isopropyl-acetamide] | 560 | 79
CN(CC1CCCO1)C(=O)Cn1cc(-c2nc(C3(c4ccc(-c5cnc(N)nc5)nc4)CCC3)no2)cn1 (stereo not shown) [Example 159, 2-[4-(3-{1-[6-(2-amino-pyrimidin-5-yl)-pyridin-3-yl]-cyclobutyl}-[1,2,4]oxadiazol-5-yl)-pyrazol-1-yl]-N-methyl-N-(tetrahydro-furan-2-ylmethyl)-acetamide] | 510 | 83
CN(C(=O)Cn1cc(-c2nc(C3(c4ccc(-c5cnc(N)nc5)nc4)CCC3)no2)cn1)C1CC1 [Example 160, 2-[4-(3-{1-[6-(2-amino-pyrimidin-5-yl)-pyridin-3-yl]-cyclobutyl}-[1,2,4]oxadiazol-5-yl)-pyrazol-1-yl]-N-cyclopropyl-N-methyl-acetamide] | 540 | 95
COC1CCN(C(=O)Cn2cc(-c3nc(C4(c5ccc(-c6cnc(N)nc6)nc5)CCC4)no3)cn2)C1 (stereo not shown) [Example 161, 2-[4-(3-{1-[6-(2-amino-pyrimidin-5-yl)-pyridin-3-yl]-cyclobutyl}-[1,2,4]oxadiazol-5-yl)-pyrazol-1-yl]-1-(3-methoxy-pyrrolidin-1-yl)-ethanone] | 1100 | 250
CCN(C)C(=O)Cn1cc(-c2nc(C3(c4ccc(-c5cnc(N)nc5)nc4)CCC3)no2)cn1 [Example 162, 2-[4-(3-{1-[6-(2-amino-pyrimidin-5-yl)-pyridin-3-yl]-cyclobutyl}-[1,2,4]oxadiazol-5-yl)-pyrazol-1-yl]-N-ethyl-N-methyl-acetamide] | 490 | 130
